{
  "source": "patent US7745001B2",
  "about": "“Synthesis of nanoassemblies containing luminescent quantum dots and magnetic nanoparticles” (University of New Orleans Research and Technology …, priority 2004, dated 2010)",
  "biological_target": "Concanavaline A (Con A) (Canavalia ensiformis, UniProt P02866)",
  "assay": "dextran-Con A binding (dissociation constant)",
  "text": "The glyconanospheres of the present invention can contain dextran molecules (or could contain other polysaccharides) on their surface that interact strongly with carbohydrate binding proteins. These glyconanospheres can be used for real-time monitoring of protein carbohydrate interactions. The inventors in their studies of the present invention focused on lectins, which are sugar binding proteins. In particular the inventors worked with Concanavaline A (Con A) which binds glycosylic residues in carbohydrates with high affinity (the dissociation constant of dextran-Con A was found in studies of the present inventors to be about 1 nanomolar).",
  "note": "pKd: −log10 of the molar value.",
  "data": [
    {"substance": "dextran", "values": [
      {"measurement": "pKd", "value": "~9.00"}
    ]}
  ]
}
